Test results: ChEMBL document CHEMBL3734743, “Potent complement C3a receptor agonists derived from oxazole amino acids: Structure-activity relationships” (Bioorg Med Chem Lett, 2015)
Activity calls are given as the source filed them. The calls are words filed in the database; no cut-off is given here.

Legend:
[1] = target: T1, C3a anaphylatoxin chemotactic receptor (Homo sapiens) (UniProt Q16581); assay: Agonist activity at C3aR in human MDM cells assessed as inhibition of C3a-induced Ca2+ response at 10 uM measured for 60 secs by fluorescence assay relative to 100 nM C3a; format: functional, cell-based
T1 sequence (whole entry): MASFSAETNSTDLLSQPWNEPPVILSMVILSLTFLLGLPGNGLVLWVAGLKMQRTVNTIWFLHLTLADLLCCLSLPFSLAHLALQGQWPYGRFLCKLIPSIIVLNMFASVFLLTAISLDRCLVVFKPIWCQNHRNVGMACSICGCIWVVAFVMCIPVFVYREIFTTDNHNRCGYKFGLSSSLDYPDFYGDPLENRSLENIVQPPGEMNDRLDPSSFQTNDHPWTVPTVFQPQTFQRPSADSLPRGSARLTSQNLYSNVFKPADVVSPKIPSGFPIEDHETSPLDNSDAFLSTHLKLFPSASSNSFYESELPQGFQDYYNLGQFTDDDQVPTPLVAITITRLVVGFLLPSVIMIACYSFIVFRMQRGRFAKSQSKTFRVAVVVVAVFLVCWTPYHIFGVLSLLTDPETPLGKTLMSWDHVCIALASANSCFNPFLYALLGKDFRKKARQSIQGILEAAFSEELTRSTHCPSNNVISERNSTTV

[2] = target: T2, C5a anaphylatoxin chemotactic receptor 1 (Homo sapiens) (UniProt P21730); assay: Displacement of [125I]-C5a from C5aR in human MDM cells at 20 uM after 60 mins by microbeta scintillation counting analysis; format: cell-based
T2 sequence (whole entry): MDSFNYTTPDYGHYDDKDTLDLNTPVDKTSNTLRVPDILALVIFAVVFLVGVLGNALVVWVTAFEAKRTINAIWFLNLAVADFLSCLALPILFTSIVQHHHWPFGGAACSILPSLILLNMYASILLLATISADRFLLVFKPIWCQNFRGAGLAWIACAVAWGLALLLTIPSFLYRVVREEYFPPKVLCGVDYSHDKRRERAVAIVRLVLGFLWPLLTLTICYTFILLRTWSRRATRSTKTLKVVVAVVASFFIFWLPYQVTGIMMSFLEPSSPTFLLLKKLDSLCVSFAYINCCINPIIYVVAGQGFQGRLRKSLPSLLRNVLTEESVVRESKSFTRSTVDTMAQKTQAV

[3] = target: T1, C3a anaphylatoxin chemotactic receptor (Homo sapiens); assay: Displacement of [125I]-C3a from C3aR in human MDM cells at 20 uM after 60 mins by microbeta scintillation counting analysis; format: cell-based
[4] = target: T3, C3a anaphylatoxin chemotactic receptor (Homo sapiens, UniProt Q16581); assay: Displacement of [125I]-C3a from C3aR in human MDM cells after 60 mins by microbeta scintillation counting analysis; format: cell-based
T3 sequence (Q16581 whole entry): T1 sequence (whole entry)

[5] = target: T1, C3a anaphylatoxin chemotactic receptor (Homo sapiens); assay: Agonist activity at C3aR in human MDM cells assessed as intracellular calcium efflux at 1 uM measured for 60 secs by fluorescence based receptor desensitization assay; format: functional, cell-based

SMILES | inhibition [1] [%] | inhibition [2] | inhibition [3] | IC50 [4] [nM] | Activity [5]
Cc1oc([C@H](CC(C)C)NC(=O)c2ccc(Oc3ccccc3)cc2)nc1C(=O)N[C@@H](CCCNC(=N)N)C(=O)O | 68 | inactive | 32% | – | –
COc1ccc(CCC(=O)N[C@@H](CC(C)C)c2nc(C(=O)N[C@@H](CCCNC(=N)N)C(=O)O)c(C)o2)cc1 | 44 | inactive | 44% | – | –
Cc1oc([C@H](CC(C)C)NC(=O)c2cc3ccccc3s2)nc1C(=O)N[C@@H](CCCNC(=N)N)C(=O)O | 62 | inactive | 14% | – | –
CC[C@H](C)[C@H](NC(=O)C(C)c1ccc2cc(OC)ccc2c1)c1nc(C(=O)N[C@@H](CCCNC(=N)N)C(=O)O)co1 (some centres undefined) | – | inactive | – | – | –
Cc1ccc(NC(=O)N[C@@H](CC(C)C)c2nc(C(=O)N[C@@H](CCCNC(=N)N)C(=O)O)c(C)o2)cc1 | 64 | – | inactive | – | –
CC[C@H](C)[C@H](NC(=O)c1cncc(Br)c1)c1nc(C(=O)N[C@@H](CCCNC(=N)N)C(=O)O)co1 | – | inactive | – | 5 | inactive
Cc1oc([C@H](CC(C)C)NC(=O)c2cc3ccccc3[nH]2)nc1C(=O)N[C@@H](CCCNC(=N)N)C(=O)O | 56 | inactive | 26% | – | –
Cc1oc([C@H](CC(C)C)NC(=O)NCc2ccccc2)nc1C(=O)N[C@@H](CCCNC(=N)N)C(=O)O | 50 | inactive | 61% | – | –
COc1ccc(OC)c(CC(=O)N[C@@H](CC(C)C)c2nc(C(=O)N[C@@H](CCCNC(=N)N)C(=O)O)c(C)o2)c1 | 69 | inactive | 42% | – | –
Cc1oc([C@H](CC(C)C)NC(=O)CC2CCCCC2)nc1C(=O)N[C@@H](CCCNC(=N)N)C(=O)O | 69 | inactive | 26% | – | –
CC[C@H](C)[C@H](NC(=O)c1ccccc1)c1nc(C(=O)N[C@@H](CCCNC(=N)N)C(=O)O)co1 | – | inactive | – | 27 | –
Cc1oc([C@H](CC(C)C)NC(=O)c2ccccn2)nc1C(=O)N[C@@H](CCCNC(=N)N)C(=O)O | 77 | inactive | 31% | – | –
Cc1oc([C@H](CC(C)C)NC(=O)c2cc3ccccc3o2)nc1C(=O)N[C@@H](CCCNC(=N)N)C(=O)O | 84 | inactive | 19% | – | –
CC(C)Cc1ccc(C(C)C(=O)N[C@@H](CC(C)C)c2nc(C(=O)N[C@@H](CCCNC(=N)N)C(=O)O)co2)cc1 (some centres undefined) | – | inactive | – | 1030 | –
Cc1oc([C@H](CC(C)C)NC(=O)c2cncc(Br)c2)nc1C(=O)N[C@@H](CCCNC(=N)N)C(=O)O | 105 | inactive | inactive | – | –
Cc1oc([C@H](CC(C)C)NC(=O)c2ccc(/N=N/c3ccccc3)cc2)nc1C(=O)N[C@@H](CCCNC(=N)N)C(=O)O | 48 | inactive | 49% | – | –
CC[C@H](C)[C@H](NC(=O)C(c1ccccc1)c1ccccc1)c1nc(C(=O)N[C@@H](CCCNC(=N)N)C(=O)O)co1 | – | inactive | – | 137 | –
COc1ccccc1CC(=O)N[C@@H](CC(C)C)c1nc(C(=O)N[C@@H](CCCNC(=N)N)C(=O)O)c(C)o1 | 81 | inactive | 43% | – | –
CC(C)C[C@H](NC(=O)C1c2ccccc2-c2ccccc21)c1nc(C(=O)N[C@@H](CCCNC(=N)N)C(=O)O)co1 | – | inactive | – | 142 | –

SMILES | inhibition [1] [%] | inhibition [2] | inhibition [3] | IC50 [4] [nM] | Activity [5]
Cc1oc([C@H](CC(C)C)NC(=O)S(=O)(=O)c2ccccc2)nc1C(=O)N[C@@H](CCCNC(=N)N)C(=O)O | 103 | inactive | 44% | – | –
CC[C@H](C)[C@H](NC(=O)c1ccc(OC)cc1OC)c1nc(C(=O)N[C@@H](CCCNC(=N)N)C(=O)O)co1 | – | inactive | – | 870 | –
COc1cccc(C(=O)N[C@@H](CC(C)C)c2nc(C(=O)N[C@@H](CCCNC(=N)N)C(=O)O)c(C)o2)c1 | 134 | inactive | inactive | – | –
Cc1oc([C@H](CC(C)C)NC(=O)CCC(C)C)nc1C(=O)N[C@@H](CCCNC(=N)N)C(=O)O | 95 | inactive | inactive | – | –
CC[C@H](C)[C@H](NC(=O)c1cccc(OC)c1OC)c1nc(C(=O)N[C@@H](CCCNC(=N)N)C(=O)O)co1 | – | inactive | – | 710 | –
Cc1oc([C@H](CC(C)C)NC(=O)C2CCCCC2)nc1C(=O)N[C@@H](CCCNC(=N)N)C(=O)O | 107 | inactive | 39% | – | –
CC[C@H](C)[C@H](NC(=O)c1ccc(C(=O)c2ccccc2)cc1)c1nc(C(=O)N[C@@H](CCCNC(=N)N)C(=O)O)co1 | – | inactive | – | 157 | –
Cc1oc([C@H](CC(C)C)NC(=O)c2ccncc2)nc1C(=O)N[C@@H](CCCNC(=N)N)C(=O)O | 109 | inactive | inactive | – | –
Cc1oc([C@H](CC(C)C)NC(=O)c2ccc(C(F)(F)F)cc2)nc1C(=O)N[C@@H](CCCNC(=N)N)C(=O)O | 50 | inactive | 61% | – | –
CC[C@H](C)[C@H](NC(=O)Cc1c[nH]c2ccccc12)c1nc(C(=O)N[C@@H](CCCNC(=N)N)C(=O)O)co1 | – | inactive | – | 152 | –
COc1cccc(CC(=O)N[C@@H](CC(C)C)c2nc(C(=O)N[C@@H](CCCNC(=N)N)C(=O)O)c(C)o2)c1 | 87 | inactive | 41% | – | –
CC[C@H](C)[C@H](NC(=O)C1CCCc2ccccc21)c1nc(C(=O)N[C@@H](CCCNC(=N)N)C(=O)O)co1 (some centres undefined) | – | inactive | – | 104 | –
Cc1oc([C@H](CC(C)C)NC(=O)c2cccnc2)nc1C(=O)N[C@@H](CCCNC(=N)N)C(=O)O | 68 | inactive | 29% | – | –
CC[C@H](C)[C@H](NC(=O)OC(C)(C)C)c1nc(C(=O)N[C@@H](CCCNC(=N)N)C(=O)O)co1 | – | inactive | – | – | inactive
COc1ccc(CC(=O)N[C@@H](CC(C)C)c2nc(C(=O)N[C@@H](CCCNC(=N)N)C(=O)O)c(C)o2)cc1OC | 67 | inactive | 65% | – | –
CC(C)C[C@H](NC(=O)C(C)c1ccc(N2Cc3ccccc3C2=O)cc1)c1nc(C(=O)N[C@@H](CCCNC(=N)N)C(=O)O)co1 (some centres undefined) | – | inactive | – | 450 | –
Cc1oc([C@H](CC(C)C)NC(=O)CC(C)(C)C)nc1C(=O)N[C@@H](CCCNC(=N)N)C(=O)O | 70 | inactive | 44% | – | –
COc1ccc(CC(=O)N[C@@H](CC(C)C)c2nc(C(=O)N[C@@H](CCCNC(=N)N)C(=O)O)c(C)o2)cc1 | 26 | inactive | 40% | – | –
CC[C@H](C)[C@H](NC(=O)c1ccc(N(C)C)cc1)c1nc(C(=O)N[C@@H](CCCNC(=N)N)C(=O)O)co1 | – | inactive | – | 800 | –
